# Measurements as given in ChEMBL document CHEMBL1201862, “PubChem BioAssay data set” (2004).
# Calls of active or inactive are those of the source.
# How the values were obtained:
# [1] = Luminescence Cell-Based Dose Retest to Confirm Inhibitors of Cancer Stem Cells. [Related pubchem assays (depositor defined):AID2717, AID2721]; type: functional; conditions: Homo sapiens
# [2] = target: Photoreceptor-specific nuclear receptor (Homo sapiens, UniProt Q9Y5X4); type: functional, cell-based;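 note: CHO-S cells with Gal4-NCOR and VP16-NR2E3 two-hybrid luciferase reporter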
# Sequence of Photoreceptor-specific nuclear receptor (Q9Y5X4 whole entry, the tested form may be a part): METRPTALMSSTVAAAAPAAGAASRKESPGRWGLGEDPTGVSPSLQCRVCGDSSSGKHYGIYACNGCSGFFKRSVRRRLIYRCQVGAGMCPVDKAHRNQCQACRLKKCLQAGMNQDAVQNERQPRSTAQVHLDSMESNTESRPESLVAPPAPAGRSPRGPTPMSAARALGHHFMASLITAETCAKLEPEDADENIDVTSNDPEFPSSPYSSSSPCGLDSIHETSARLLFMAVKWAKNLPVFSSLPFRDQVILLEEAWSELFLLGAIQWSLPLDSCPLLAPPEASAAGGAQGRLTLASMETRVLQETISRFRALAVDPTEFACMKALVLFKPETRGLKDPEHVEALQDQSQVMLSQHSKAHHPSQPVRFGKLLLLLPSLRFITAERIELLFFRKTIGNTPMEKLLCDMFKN
# [3] = activation of miR-122 Renilla sensor silencing – cell-based, Huh7 psiCHECK-miR122, Renilla luciferase, cherry-picked, dose response (AID 651956); type: functional;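 note: huh7 hepatoma cells stably carrying a psiCHECK-2 miR-122 sensor plasmid; renilla luciferase signal reporting endogenous miR-122 activity after 48 h compound exposure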
# cells = type: functional, cell-based
# [4] = target: T1, Nuclear receptor subfamily 0 group B member 1 (Homo sapiens, UniProt P51843); type: functional, cell-based;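 note: HEK293T cells transfected with SF-1 and DAX-1 plus StAR promoter luciferase reporter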
# T1 sequence (P51843 whole entry): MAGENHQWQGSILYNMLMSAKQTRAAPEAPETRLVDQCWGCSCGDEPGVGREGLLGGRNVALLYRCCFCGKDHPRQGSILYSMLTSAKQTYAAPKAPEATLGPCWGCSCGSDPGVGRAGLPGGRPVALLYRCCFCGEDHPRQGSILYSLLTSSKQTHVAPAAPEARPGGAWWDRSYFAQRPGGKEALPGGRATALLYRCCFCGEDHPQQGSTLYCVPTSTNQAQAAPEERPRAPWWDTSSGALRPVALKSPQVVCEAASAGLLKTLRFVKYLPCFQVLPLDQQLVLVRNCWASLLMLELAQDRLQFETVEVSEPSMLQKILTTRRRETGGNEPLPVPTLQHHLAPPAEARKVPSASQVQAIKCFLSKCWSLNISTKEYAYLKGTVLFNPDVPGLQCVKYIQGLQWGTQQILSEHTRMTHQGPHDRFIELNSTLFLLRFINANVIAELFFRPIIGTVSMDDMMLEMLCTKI
# Paired box protein Pax-8 = Paired box protein Pax-8 (Homo sapiens, UniProt Q06710); experiment: PAX8 transcriptional activity inhibition in RMG-I – RMG-I cells, luciferase, cherry-pick, dose response (AID 687027); type: functional, cell-based;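 note: luciferase reporter driven by Pax8 target thyroperoxidase promoter measured by SteadyGlo luminescence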
# Sequence of Paired box protein Pax-8 (Q06710 whole entry): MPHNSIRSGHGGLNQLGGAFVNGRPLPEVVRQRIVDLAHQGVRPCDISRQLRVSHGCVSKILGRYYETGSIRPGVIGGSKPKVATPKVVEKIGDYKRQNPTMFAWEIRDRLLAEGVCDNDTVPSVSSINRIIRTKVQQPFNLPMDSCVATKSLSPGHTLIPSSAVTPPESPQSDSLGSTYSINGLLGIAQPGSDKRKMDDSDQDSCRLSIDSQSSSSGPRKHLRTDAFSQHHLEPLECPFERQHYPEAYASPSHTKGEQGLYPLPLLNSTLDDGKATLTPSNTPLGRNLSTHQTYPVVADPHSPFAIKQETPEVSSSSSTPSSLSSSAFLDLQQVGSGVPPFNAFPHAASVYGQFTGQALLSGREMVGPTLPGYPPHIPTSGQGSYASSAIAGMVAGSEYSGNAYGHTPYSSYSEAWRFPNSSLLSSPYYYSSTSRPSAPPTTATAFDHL
# [5] = target: Nuclear receptor subfamily 5 group A member 2 (Homo sapiens, UniProt O00482); type: functional, cell-based;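 note: HEK293T cells transfected with LRH-1 and a StAR promoter luciferase reporter; potency for inhibitors that lower LRH-1 driven reporter light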
# Sequence of Nuclear receptor subfamily 5 group A member 2 (O00482 whole entry): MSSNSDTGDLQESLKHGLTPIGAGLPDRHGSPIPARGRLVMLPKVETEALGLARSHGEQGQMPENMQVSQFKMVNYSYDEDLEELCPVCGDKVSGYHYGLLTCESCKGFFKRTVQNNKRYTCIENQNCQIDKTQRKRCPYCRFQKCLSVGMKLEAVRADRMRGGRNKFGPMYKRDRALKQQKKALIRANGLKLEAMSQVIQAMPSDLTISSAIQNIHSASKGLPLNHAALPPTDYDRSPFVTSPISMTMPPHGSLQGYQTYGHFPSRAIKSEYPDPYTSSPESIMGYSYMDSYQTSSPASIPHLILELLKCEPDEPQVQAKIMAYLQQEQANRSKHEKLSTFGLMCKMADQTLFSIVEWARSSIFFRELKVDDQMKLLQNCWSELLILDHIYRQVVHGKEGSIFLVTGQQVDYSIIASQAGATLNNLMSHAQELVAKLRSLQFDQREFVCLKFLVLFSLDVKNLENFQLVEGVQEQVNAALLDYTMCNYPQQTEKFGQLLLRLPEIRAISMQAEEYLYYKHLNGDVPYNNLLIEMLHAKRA
# Steroidogenic factor 1 = Steroidogenic factor 1 (Homo sapiens, UniProt Q13285); experiment: Counterscreen for inverse agonists of the liver receptor homolog-1 (LRH-1; NR5A2): Luminescence-based cell-based high throughput dose response assay to identify inverse agonists of the Steroidogenic Factor 1 Nuclear Receptor (SF1; NR5A1).; type: functional
# Sequence of Steroidogenic factor 1 (Q13285 whole entry): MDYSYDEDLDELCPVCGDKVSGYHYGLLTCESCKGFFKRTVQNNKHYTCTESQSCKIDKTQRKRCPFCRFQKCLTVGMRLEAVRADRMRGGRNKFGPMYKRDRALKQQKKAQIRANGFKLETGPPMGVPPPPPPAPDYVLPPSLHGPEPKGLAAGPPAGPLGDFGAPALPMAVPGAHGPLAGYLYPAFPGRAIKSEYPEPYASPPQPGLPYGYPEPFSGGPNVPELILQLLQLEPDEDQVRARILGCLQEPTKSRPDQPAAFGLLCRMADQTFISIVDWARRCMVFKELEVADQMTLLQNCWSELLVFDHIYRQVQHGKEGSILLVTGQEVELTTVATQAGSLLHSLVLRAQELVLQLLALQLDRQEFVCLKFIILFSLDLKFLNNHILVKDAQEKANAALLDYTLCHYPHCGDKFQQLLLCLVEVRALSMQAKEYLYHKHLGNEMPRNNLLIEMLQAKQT
# [6] = nonselective StAR promoter luciferase inhibitors – cell-based, luminescence, luciferase reporter, counter-screen for LRH-1 inverse agonist project, dose response (AID 651969); type: functional
# [7] = target: T2, Adenosylmethionine-8-amino-7-oxononanoate aminotransferase (Mycobacterium tuberculosis, UniProt P9WQ81); experiment: Mycobacterium tuberculosis BioA enzyme inhibitor Measured in Biochemical System Using Plate Reader - 2163-02_Inhibitor_Dose_CherryPick_Activity.; type: functional, Mycobacterium tuberculosis UT205
# T2 sequence (P9WQ81 whole entry): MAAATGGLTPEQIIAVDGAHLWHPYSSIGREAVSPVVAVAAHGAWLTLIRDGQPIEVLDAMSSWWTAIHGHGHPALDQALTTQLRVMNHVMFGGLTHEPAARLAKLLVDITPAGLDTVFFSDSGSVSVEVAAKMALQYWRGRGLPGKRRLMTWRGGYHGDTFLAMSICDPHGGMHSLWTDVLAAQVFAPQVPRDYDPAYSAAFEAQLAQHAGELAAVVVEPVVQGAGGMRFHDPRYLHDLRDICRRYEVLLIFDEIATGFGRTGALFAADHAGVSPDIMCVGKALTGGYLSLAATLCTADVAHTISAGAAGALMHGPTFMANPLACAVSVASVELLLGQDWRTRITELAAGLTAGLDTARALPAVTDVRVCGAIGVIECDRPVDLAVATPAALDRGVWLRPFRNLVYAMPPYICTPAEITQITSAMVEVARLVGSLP
# [8] = intracellular Trypanosoma cruzi inhibitors in host cells – cell-based, plate reader, cherry-pick samples, set 3, dose response (AID 651818); type: functional;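 note: compounds incubated with infected cells for about four days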
smiles,measurement,setting,value
N#Cc1c(-c2ccccc2)cc(-c2ccccc2)nc1SCCC(=O)O,AC50,[1],1.6 µM (active)
same,IC50,[2],12.7 µM (inactive)
C[C@@H]1CN([C@H](C)CO)S(=O)(=O)c2ccc(C3=CCCC3)cc2O[C@@H]1CN(C)C(=O)Cc1ccncc1,AC50,[3],5.84 µM (active)
COc1ccc(-c2cnc3c(NC=O)cc(-c4ccccc4OC)cn23)cc1OC,IC50,cells,> 67.6 µM (inactive)
same,IC50,[4],> 67.6 µM (inactive)
same,AC50,Paired box protein Pax-8,1.55 µM (active)
CCCN(CC(=O)Nc1ccccc1C)CC(=O)Nc1ccc(Br)cc1F,IC50,[5],10.6 µM (inactive)
same,IC50,Steroidogenic factor 1,1.33 µM (active)
same,IC50,[6],35.1 µM (inactive)
COC(=O)C1CCN(C(c2ccc(OC)c(OC)c2)c2sc3nc(C)nn3c2O)CC1 (centres undefined),AC50,[7],17.4 µM (active)
C[C@H](CO)N1C[C@H](C)[C@H](CN(C)Cc2ccc(C(=O)Nc3ccccc3N)cc2)Oc2ccc(NS(=O)(=O)c3ccc(Cl)cc3)cc2CC1=O,AC50,[8],1.91 µM (active)
COc1cc(OC)cc(-c2oc3cccnc3c2C#CCCO)c1,IC50,[5],1.87 µM (active)
same,IC50,Steroidogenic factor 1,0.443 µM (active)
same,IC50,[6],27.3 µM (inactive)
COC(=O)c1ccc(NC(=O)COc2cccc(-n3cnnn3)c2)cc1,IC50,[5],35.9 µM (inactive)
same,IC50,Steroidogenic factor 1,35.9 µM (inactive)
same,IC50,[6],35.9 µM (inactive)
O=C(NC1CCCc2c1cnn2-c1cc(F)cc(F)c1)c1ccc[n+]([O-])c1 (centres undefined),AC50,[7],4.29 µM (active)
C[C@@H]1CN([C@@H](C)CO)C(=O)c2cccc(NC(=O)CCCCCC(=O)Nc3ccccc3N)c2O[C@H]1CN(C)CC1CCCCC1,AC50,[8],3.58 µM (active)
